EC50 and Emax data for 28 compounds are collected here from patent publication US10457703B2, “Bile acid derivatives as FXR/TGR5 agonists and methods of use thereof” (ENANTA PHARMACEUTICALS, INC., priority 2015, dated 2019).

Some results are limits rather than exact numbers.

For the assay, the target named is human FXR (NR1H4) (Homo sapiens (Human), UniProt Q96RI1). Briefly: Human FXR (NR1H4) Assay (Gal4 promoter driven luciferase reporter, Indigo Bioscience kit).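 For Efficacy (%): 100% equals the efficacy of CDCA; efficacy normalized to CDCA set as 100%.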 To be noted: for EC50: Human FXR (NR1H4) Assay, potency ranges; for Emax: read-out: Efficacy (%). Format: cell-based. An excerpt: ASSAYS Human FXR (NR1H4) Assay
human FXR (NR1H4), sequence (Q96RI1 whole entry, the tested form may be a part): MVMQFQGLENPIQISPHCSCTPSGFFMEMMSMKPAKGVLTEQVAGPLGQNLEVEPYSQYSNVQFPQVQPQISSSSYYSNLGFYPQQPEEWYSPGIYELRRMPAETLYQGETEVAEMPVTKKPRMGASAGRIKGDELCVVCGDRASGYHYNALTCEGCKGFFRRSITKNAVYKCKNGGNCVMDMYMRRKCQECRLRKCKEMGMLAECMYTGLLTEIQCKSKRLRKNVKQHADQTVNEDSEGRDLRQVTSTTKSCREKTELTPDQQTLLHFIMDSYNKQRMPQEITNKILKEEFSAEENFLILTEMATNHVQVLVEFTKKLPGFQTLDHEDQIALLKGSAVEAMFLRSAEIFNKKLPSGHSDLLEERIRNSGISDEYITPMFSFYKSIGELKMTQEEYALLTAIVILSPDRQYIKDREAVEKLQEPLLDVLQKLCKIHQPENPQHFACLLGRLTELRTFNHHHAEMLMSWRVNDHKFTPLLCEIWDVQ
Determination of a ligand mediated Gal4 promoter driven transactivation to quantify ligand binding mediated activation of FXR. FXR Reporter Assay kit purchased from Indigo Bioscience (Catalogue number: IB00601) to determine the potency and efficacy of compound developed by Enanta that can induce FXR activation. The principle application of this reporter assay system is to quantify functional activity of human FXR. The assay utilizes non-human mammalian cells, CHO (Chinese hamster ovary) cells engineered to express human NR1H4 protein (referred to as FXR). Reporter cells also incorporate the cDNA encoding beetle luciferase which catalyzes the substrates and yields photon emission. Luminescence intensity of the reaction is quantified using a plate-reading luminometer, Envision. Reporter Cells include the luciferase reporter gene functionally linked to an FXR responsive promoter. Thus, quantifying changes in luciferase expression in the treated reporter cells provides a sensitive surrogate measure of the changes in FXR activity. […] The assay is according to the manufacturer's instructions. In brief, the assay was performed in white, 96 well plates using final volume of 100 uL containing cells with different doses of compounds. Retrieve Reporter Cells from −80° C. storage. Perform a rapid thaw of the frozen cells by transferring a 10 ml volume of 37° C. cell recovery medium into the tube of frozen cells. Recap the tube of Reporter Cells and immediately place it in a 37° C. water bath for 5-10 minutes. Retrieve the tube of Reporter Cell Suspension from the water bath. Sanitize the outside surface of the tube with a 70% alcohol swab, and then transfer it into the cell culture hood. Dispense 90 μl of cell suspension into each well of the 96-well Assay Plate. Transfer the plate into 37° C. incubator, allowing the cells adherent to the bottom of the well. Dilute compounds in Dilution Plate (DP), and administrate to cells at Assay Plate (AP). DMSO content of the samples was kept at 0.2%. Cells were incubated for additional 22 hours before luciferase activities were measured. Thirty minutes before intending to quantify FXR activity, remove Detection Substrate and Detection Buffer from the refrigerator and place them in a low-light area so that they may equilibrate to room temperature. Remove the plate's lid and discard all media contents by ejecting it into an appropriate waste container. Gently tap the inverted plate onto a clean absorbent paper towel to remove residual droplets. Cells will remain tightly adhered to well bottoms. Add 100 μl of luciferase detection reagent to each well of the assay plate. Allow the assay plate to rest at room temperature for at least 5 minutes following the addition of LDR. Set the instrument (Envision) to perform a single 5 second “plate shake” prior to reading the first assay well. Read time may be 0.5 second (500 mSec) per well.

`CC[C@H]1[C@@H](O)[C@@H]2[C@H](CC[C@]3(C)[C@@H]([C@H](C)CCOC(=O)N4CCC(C)(CO)CC4)CC[C@@H]23)[C@@]2(C)CC[C@@H](O)C[C@@H]12` [Example 213]: the EC50 is less than 0.1 µM and the Emax stood at 460%.

Regarding `CC[C@H]1[C@@H](O)[C@@H]2[C@H](CC[C@]3(C)[C@@H]([C@H](C)CCOC(=O)NS(=O)(=O)c4ccc(OC)c(OC)c4)CC[C@@H]23)[C@@]2(C)CC[C@@H](O)C[C@@H]12` [Example 87], the EC50 lay within 0.1 to 1 µM and the Emax was 274%.

For the compound `CC[C@H]1[C@@H](O)[C@@H]2[C@H](CC[C@]3(C)[C@@H]([C@H](C)CCOC(=O)NS(=O)(=O)c4ccccc4)CC[C@@H]23)[C@@]2(C)CC[C@@H](O)C[C@@H]12` [Example 60], the EC50 was less than 0.1 µM and the Emax stood at 309%.

Regarding `CC[C@H]1[C@@H](O)[C@@H]2[C@H](CC[C@]3(C)[C@@H]([C@H](C)CCOC(=O)NS(=O)(=O)c4cccc(OC)c4)CC[C@@H]23)[C@@]2(C)CC[C@@H](O)C[C@@H]12` [Example 86], the EC50 was 0.1 to 1 µM and the Emax turned out to be 288%.

Consider `CC[C@H]1[C@@H](O)[C@@H]2[C@H](CC[C@]3(C)[C@@H]([C@H](C)CCOC(=O)NCCCCCO)CC[C@@H]23)[C@@]2(C)CC[C@@H](O)C[C@@H]12` [Example 174], for which the EC50 was less than 0.1 µM and the Emax turned out to be 228%.

For `CC[C@H]1[C@@H](O)[C@@H]2[C@H](CC[C@]3(C)[C@@H]([C@H](C)COC(=O)NS(=O)(=O)c4ccc(-c5ccccc5)cc4)CC[C@@H]23)[C@@]2(C)CC[C@@H](O)C[C@@H]12` [Example 32], the EC50 is less than 0.1 µM and the Emax turned out to be 164%.

Regarding `CC[C@H]1[C@@H](O)[C@@H]2[C@H](CC[C@]3(C)[C@@H]([C@H](C)COC(=O)NS(=O)(=O)c4ccc(-n5cnnn5)nc4)CC[C@@H]23)[C@@]2(C)CC[C@@H](O)C[C@@H]12` [Example 44-d], the EC50 lay within 0.1 to 1 µM and the Emax was 195%.

With `CC[C@H]1[C@@H](O)[C@@H]2[C@H](CC[C@]3(C)[C@@H]([C@H](C)COC(=O)NS(=O)(=O)c4ccc(-n5cncn5)cc4)CC[C@@H]23)[C@@]2(C)CC[C@@H](O)C[C@@H]12` [Example 44-f], the EC50 is less than 0.1 µM and the Emax is 216%.

As for `CC[C@H]1[C@@H](O)[C@@H]2[C@H](CC[C@]3(C)[C@@H]([C@H](C)COC(=O)NC4CCCCC4)CC[C@@H]23)[C@@]2(C)CC[C@@H](O)C[C@@H]12` [Example 199], the EC50 was 1 to 10 µM and the Emax turned out to be 14%.

Consider `CC[C@H]1[C@@H](O)[C@@H]2[C@H](CC[C@]3(C)[C@@H]([C@H](C)CCOC(=O)N4CCC(CO)CC4)CC[C@@H]23)[C@@]2(C)CC[C@@H](O)C[C@@H]12` [Example 202], for which the concentration giving a half-maximal response (EC50) was in the range of 0.1 to 1 µM and the Emax was 393%.

As to `CC[C@H]1[C@@H](O)[C@@H]2[C@H](CC[C@]3(C)[C@@H]([C@H](C)CCOC(=O)N[C@@H](C)C4CC4)CC[C@@H]23)[C@@]2(C)CC[C@@H](O)C[C@@H]12` [Example 175], the EC50 was in the range of 0.1 to 1 µM and the Emax came to 210%.

In the case of `CC[C@H]1[C@@H](O)[C@@H]2[C@H](CC[C@]3(C)[C@@H]([C@H](C)CCOC(=O)NS(=O)(=O)c4ccc(Cl)cc4)CC[C@@H]23)[C@@]2(C)CC[C@@H](O)C[C@@H]12` [Example 61], the concentration for a half-maximal effect (EC50) is less than 0.1 µM and the Emax was 270%.

As for `CC[C@H]1[C@@H](O)[C@@H]2[C@H](CC[C@]3(C)[C@@H]([C@H](C)CCOC(=O)NS(=O)(=O)N4CCCC4)CC[C@@H]23)[C@@]2(C)CC[C@@H](O)C[C@@H]12` [Example 51], the EC50 is less than 0.1 µM and the Emax is 218%.

Take `CC[C@H]1[C@@H](O)[C@@H]2[C@H](CC[C@]3(C)[C@@H]([C@H](C)CCOC(=O)NC4(C)CC4)CC[C@@H]23)[C@@]2(C)CC[C@@H](O)C[C@@H]12` [Example 135]: the EC50 lay within 0.1 to 1 µM and the Emax worked out at 224%.

In the case of `CC[C@H]1[C@@H](O)[C@@H]2[C@H](CC[C@]3(C)[C@@H]([C@H](C)CCOC(=O)NCCC4CC4)CC[C@@H]23)[C@@]2(C)CC[C@@H](O)C[C@@H]12` [Example 177], the EC50 is 0.1 to 1 µM and the Emax was 460%.

Regarding `CC[C@H]1[C@@H](O)[C@@H]2[C@H](CC[C@]3(C)[C@@H]([C@H](C)COC(=O)NS(=O)(=O)c4ccc(N5CCC(F)(F)CC5)cc4)CC[C@@H]23)[C@@]2(C)CC[C@@H](O)C[C@@H]12` [Example 21], the EC50 is less than 0.1 µM and the Emax came out at 225%.

Take `CC[C@H]1[C@@H](O)[C@@H]2[C@H](CC[C@]3(C)[C@@H]([C@H](C)CCOC(=O)NS(=O)(=O)C4(C)CC4)CC[C@@H]23)[C@@]2(C)CC[C@@H](O)C[C@@H]12` [Example 49]: the EC50 was less than 0.1 µM and the Emax is 269%.

Take `CC[C@H]1[C@@H](O)[C@@H]2[C@H](CC[C@]3(C)[C@@H]([C@H](C)CCOC(=O)NCCCN4CCOCC4)CC[C@@H]23)[C@@]2(C)CC[C@@H](O)C[C@@H]12` [Example 152]: the EC50 was in the range of 0.1 to 1 µM and the Emax amounted to 276%.

Take `CC[C@H]1[C@@H](O)[C@@H]2[C@H](CC[C@]3(C)[C@@H]([C@H](C)COC(=O)NS(=O)(=O)c4ccc(-c5ccc(C(C)(C)C)cc5)s4)CC[C@@H]23)[C@@]2(C)CC[C@@H](O)C[C@@H]12` [Example 25]: the EC50 fell in the range of 0.1 to 1 µM and the Emax was 182%.

Take `CC[C@H]1[C@@H](O)[C@@H]2[C@H](CC[C@]3(C)[C@@H]([C@H](C)CCOC(=O)NS(=O)(=O)c4ccc(C(F)(F)F)cc4)CC[C@@H]23)[C@@]2(C)CC[C@@H](O)C[C@@H]12` [Example 79]: the EC50 was less than 0.1 µM and the Emax stood at 376%.

With `CC[C@H]1[C@@H](O)[C@@H]2[C@H](CC[C@]3(C)[C@@H]([C@H](C)COC(=O)NS(=O)(=O)c4cccc(-c5ncco5)c4)CC[C@@H]23)[C@@]2(C)CC[C@@H](O)C[C@@H]12` [Example 44-i], the EC50 lay in the range of 0.1 to 1 µM and the Emax worked out at 210%.

As for `CC[C@H]1[C@@H](O)[C@@H]2[C@H](CC[C@]3(C)[C@@H]([C@H](C)CCOC(=O)N4CCC(N5CCCCC5)CC4)CC[C@@H]23)[C@@]2(C)CC[C@@H](O)C[C@@H]12` [Example 178], the EC50 lay in the range of 0.1 to 1 µM and the Emax was 196%.

As to `CC[C@H]1[C@@H](O)[C@@H]2[C@H](CC[C@]3(C)[C@@H]([C@H](C)CCCOC(=O)NS(=O)(=O)C4CCCCC4)CC[C@@H]23)[C@@]2(C)CC[C@@H](O)C[C@@H]12` [Example 2], the EC50 fell in the range of 0.1 to 1 µM and the Emax stood at 247%.

As to `CC[C@H]1[C@@H](O)[C@@H]2[C@H](CC[C@]3(C)[C@@H]([C@H](C)CCOC(=O)NCC(C)(C)O)CC[C@@H]23)[C@@]2(C)CC[C@@H](O)C[C@@H]12` [Example 142], the EC50 was in the range of 0.1 to 1 µM and the Emax was determined as 247%.

Take `CC[C@H]1[C@@H](O)[C@@H]2[C@H](CC[C@]3(C)[C@@H]([C@H](C)COC(=O)NS(=O)(=O)c4ccc(-n5ccnc5)nc4)CC[C@@H]23)[C@@]2(C)CC[C@@H](O)C[C@@H]12` [Example 44-m]: the EC50 was less than 0.1 µM and the Emax was determined as 206%.

For `CC[C@H]1[C@@H](O)[C@@H]2[C@H](CC[C@]3(C)[C@@H]([C@H](C)CCCOC(=O)NS(=O)(=O)C(C)C)CC[C@@H]23)[C@@]2(C)CC[C@@H](O)C[C@@H]12` [Example 114], the EC50 lay within 0.1 to 1 µM and the Emax worked out at 345%.

For the compound `CC[C@H]1[C@@H](O)[C@@H]2[C@H](CC[C@]3(C)[C@@H]([C@H](C)CCCOC(=O)N4CCOCC4)CC[C@@H]23)[C@@]2(C)CC[C@@H](O)C[C@@H]12` [Example 130], the 50% effective concentration (EC50) is 1 to 10 µM and the Emax is 256%.

Take `CC[C@H]1[C@@H](O)[C@@H]2[C@H](CC[C@]3(C)[C@@H]([C@H](C)CCOC(=O)N[C@H]4CCC[C@@H]4O)CC[C@@H]23)[C@@]2(C)CC[C@@H](O)C[C@@H]12` [Example 208]: the EC50 was 0.1 to 1 µM and the Emax turned out to be 205%.
